Experimental data published in the supplement of paper PMC11451515.

Legend:
Details in all cases: 48 h
NOMO1 [1] = assay: AUC of viability dose-response curve (% viability x log10 dose units); higher = less sensitive
How it was run: (§1)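 In 1536-well plates, leukemia cells adapted to each medium (500 or 1000 cells/well) were exposed for 48 h at 37°C to library compounds in DMSO across 11 threefold doses, 47 μM down to 0.79 nM. Viability was read by CellTiter-Glo One luminescence and normalised per plate to DMSO and cell-free wells. A four-parameter log-logistic fit over log10 doses was integrated by trapezoidal rule. This yielded the area under the curve, with over-full-viability curves scaled and quality-control failures dropped.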

P12-Ichikawa [2] = assay: as above
How it was run: as §1

SEM cells [3] = assay: cell viability relative to DMSO control; higher = less cytotoxic
How it was run: (§2)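 Viability was expressed as a per-plate percentage of DMSO wells, with cell-free wells as background. Leukemia cells (NOMO1 or SEM at 500 cells/well, P12-Ichikawa at 1000 cells/well) were adapted for at least four passages in each medium and seeded in 1536-well plates (5 μl). Library compounds in DMSO were pin-dosed over an 11-point threefold series from 47 μM to 0.79 nM, and CellTiter-Glo One luminescence was read after 48 h at 37°C.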

NOMO1 [4] = assay: as above
How it was run: as §2

P12-Ichikawa [5] = assay: as above
How it was run: as §2

SEM cells [6] = assay: AUC of viability dose-response curve (% viability x log10 dose units); higher = less sensitive
How it was run: as §1

COc1ccc([S+](=O)([O-])Nc2cccnc2Nc2ccc(O)cc2)cc1
AUC of viability dose-response curve
Details	HPLM + 10% dialyzed FBS	RPMI 5 mM glucose + 10% FBS	RPMI 5 mM glucose + 10% dialyzed FBS
NOMO1 [1]	387	379	410
P12-Ichikawa [2]	372	377	388

cell viability [%]
Details	NOMO1 [4]	P12-Ichikawa [5]	SEM cells [3]
HPLM + 10% dialyzed FBS, 0.000781 µM	–	124	124
HPLM + 10% dialyzed FBS, 0.00234 µM	–	118	127
HPLM + 10% dialyzed FBS, 0.00702 µM	–	124	114
HPLM + 10% dialyzed FBS, 0.0211 µM	–	119	116
HPLM + 10% dialyzed FBS, 0.0632 µM	–	122	127
HPLM + 10% dialyzed FBS, 0.19 µM	–	125	115
HPLM + 10% dialyzed FBS, 0.569 µM	–	129	123
HPLM + 10% dialyzed FBS, 1.71 µM	–	122	96.1
HPLM + 10% dialyzed FBS, 5.12 µM	–	17.2	20.9
HPLM + 10% dialyzed FBS, 15.4 µM	–	14.8	25.5
HPLM + 10% dialyzed FBS, 46.1 µM	–	10.8	21.6
RPMI 5 mM glucose + 10% FBS, 0.000781 µM	117	125	76.2
RPMI 5 mM glucose + 10% FBS, 0.00234 µM	107	121	82.1
RPMI 5 mM glucose + 10% FBS, 0.00702 µM	116	116	65.8
RPMI 5 mM glucose + 10% FBS, 0.0211 µM	115	126	86.4
RPMI 5 mM glucose + 10% FBS, 0.0632 µM	121	120	77.6
RPMI 5 mM glucose + 10% FBS, 0.19 µM	101	119	82.6
RPMI 5 mM glucose + 10% FBS, 0.569 µM	129	118	77.1
RPMI 5 mM glucose + 10% FBS, 1.71 µM	97.6	122	79.1
RPMI 5 mM glucose + 10% FBS, 5.12 µM	28.6	22.3	36.2
RPMI 5 mM glucose + 10% FBS, 15.4 µM	23.2	17.7	17.5
RPMI 5 mM glucose + 10% FBS, 46.1 µM	29.4	17.3	13.5
RPMI 5 mM glucose + 10% dialyzed FBS, 0.000781 µM	119	117	114
RPMI 5 mM glucose + 10% dialyzed FBS, 0.00234 µM	113	128	109
RPMI 5 mM glucose + 10% dialyzed FBS, 0.00702 µM	110	118	109
RPMI 5 mM glucose + 10% dialyzed FBS, 0.0211 µM	111	114	105
RPMI 5 mM glucose + 10% dialyzed FBS, 0.0632 µM	114	121	102
RPMI 5 mM glucose + 10% dialyzed FBS, 0.19 µM	110	113	124
RPMI 5 mM glucose + 10% dialyzed FBS, 0.569 µM	116	108	113
RPMI 5 mM glucose + 10% dialyzed FBS, 1.71 µM	114	113	96.5
RPMI 5 mM glucose + 10% dialyzed FBS, 5.12 µM	71.5	39	47.5
RPMI 5 mM glucose + 10% dialyzed FBS, 15.4 µM	36	28	23.4
RPMI 5 mM glucose + 10% dialyzed FBS, 46.1 µM	33.5	24	20.2

NCCc1c[nH]cn1
AUC of viability dose-response curve
Details	NOMO1 [1]	P12-Ichikawa [2]	SEM cells [6]
HPLM + 10% dialyzed FBS	466	456	473
RPMI 5 mM glucose + 10% FBS	460	449	437
RPMI 5 mM glucose + 10% dialyzed FBS	444	461	432

COc1c(O)cc2c(c1O)[C@@H]1O[C@H](CO)[C@@H](O)[C@H](O)[C@H]1OC2=O
AUC of viability dose-response curve
Details	NOMO1 [1]	P12-Ichikawa [2]	SEM cells [6]
HPLM + 10% dialyzed FBS	419	432	431
RPMI 5 mM glucose + 10% FBS	448	432	394
RPMI 5 mM glucose + 10% dialyzed FBS	454	427	409

CCCCCCCCCCCCc1ccc([S+](=O)([O-])Nc2nncs2)cc1
AUC of viability dose-response curve
Details	NOMO1 [1]	P12-Ichikawa [2]	SEM cells [6]
HPLM + 10% dialyzed FBS	390	411	447
RPMI 5 mM glucose + 10% FBS	443	460	360
RPMI 5 mM glucose + 10% dialyzed FBS	452	451	415

NC(=O)c1noc([C@H](CCCC2CCCCC2)CC(=O)NO)n1
AUC of viability dose-response curve
Details	NOMO1 [1]	P12-Ichikawa [2]	SEM cells [6]
HPLM + 10% dialyzed FBS	431	441	428
RPMI 5 mM glucose + 10% FBS	424	422	414
RPMI 5 mM glucose + 10% dialyzed FBS	441	421	429

C[C@H](Cc1ccc(O)c(O)c1)[C@@H](C)Cc1ccc(O)c(O)c1
AUC of viability dose-response curve
Details	HPLM + 10% dialyzed FBS	RPMI 5 mM glucose + 10% FBS	RPMI 5 mM glucose + 10% dialyzed FBS
P12-Ichikawa [2]	443	432	436
SEM cells [6]	394	453	453

cell viability [%]
Details	NOMO1 [4]	P12-Ichikawa [5]	SEM cells [3]
HPLM + 10% dialyzed FBS, 0.000781 µM	130	115	123
HPLM + 10% dialyzed FBS, 0.00234 µM	119	114	121
HPLM + 10% dialyzed FBS, 0.00702 µM	118	120	113
HPLM + 10% dialyzed FBS, 0.0211 µM	117	122	116
HPLM + 10% dialyzed FBS, 0.0632 µM	126	118	130
HPLM + 10% dialyzed FBS, 0.19 µM	133	116	116
HPLM + 10% dialyzed FBS, 0.569 µM	134	117	29
HPLM + 10% dialyzed FBS, 1.71 µM	132	116	118
HPLM + 10% dialyzed FBS, 5.12 µM	42	114	122
HPLM + 10% dialyzed FBS, 15.4 µM	99.6	87.5	105
HPLM + 10% dialyzed FBS, 46.1 µM	18.4	18.1	28.8
RPMI 5 mM glucose + 10% FBS, 0.000781 µM	141	125	117
RPMI 5 mM glucose + 10% FBS, 0.00234 µM	114	130	110
RPMI 5 mM glucose + 10% FBS, 0.00702 µM	112	123	105
RPMI 5 mM glucose + 10% FBS, 0.0211 µM	122	128	104
RPMI 5 mM glucose + 10% FBS, 0.0632 µM	117	130	117
RPMI 5 mM glucose + 10% FBS, 0.19 µM	109	126	103
RPMI 5 mM glucose + 10% FBS, 0.569 µM	119	118	37.3
RPMI 5 mM glucose + 10% FBS, 1.71 µM	114	125	118
RPMI 5 mM glucose + 10% FBS, 5.12 µM	111	115	128
RPMI 5 mM glucose + 10% FBS, 15.4 µM	104	75.9	101
RPMI 5 mM glucose + 10% FBS, 46.1 µM	57.5	16.3	6.24
RPMI 5 mM glucose + 10% dialyzed FBS, 0.000781 µM	119	124	144
RPMI 5 mM glucose + 10% dialyzed FBS, 0.00234 µM	121	121	113
RPMI 5 mM glucose + 10% dialyzed FBS, 0.00702 µM	124	119	119
RPMI 5 mM glucose + 10% dialyzed FBS, 0.0211 µM	107	118	128
RPMI 5 mM glucose + 10% dialyzed FBS, 0.0632 µM	104	124	131
RPMI 5 mM glucose + 10% dialyzed FBS, 0.19 µM	114	120	116
RPMI 5 mM glucose + 10% dialyzed FBS, 0.569 µM	113	109	36.6
RPMI 5 mM glucose + 10% dialyzed FBS, 1.71 µM	111	114	109
RPMI 5 mM glucose + 10% dialyzed FBS, 5.12 µM	57	115	112
RPMI 5 mM glucose + 10% dialyzed FBS, 15.4 µM	94.1	70.9	109
RPMI 5 mM glucose + 10% dialyzed FBS, 46.1 µM	27.9	20.6	7.68
